Assay results reported in US20220323437A1, “METHODS FOR TREATING PULMONARY ARTERIAL HYPERTENSION” (ACTELION PHARMACEUTICALS LTD, priority 2019, published 2022).
“And” between values parts separate entries of the source, which are not always exact repeats. Equal values may be shown once.

Assay: Adverse events during switch from oral to i.v. selexipag and back in subjects with stable PAH (Phase 3 study)
Type: in vivo, human
Method: This was a prospective, multicenter, open-label, single-sequence, cross-over, Phase 3 study. Based on the dose of selexipag received at study entry, subjects were allocated to one of the following groups, selexipag 200-1000 μg b.i.d. or selexipag 1200-1600 μg b.i.d. See, FIG. 1. The study comprised the following periods:
(ii) Treatment and observation period: The treatment and observation period included the following consecutive periods: • Period 1 included oral selexipag pre-treatment period for 1 day, in-hospital. This period started with intake of the morning dose of oral selexipag on Day 1 at Visit 2 and ended the following day, before initiation of the first infusion of i.v. selexipag. • Period 2 included i.v. selexipag treatment period for 36 hours [3 infusions], in-hospital. This period started in the morning of Day 2 at Visit 2 with the start of the first infusion of i.v. selexipag and ended in the evening of Day 3 at Visit 2 before the evening administration of oral selexipag. Administration of oral selexipag was interrupted during the i.v. selexipag treatment period. • Period 3 included oral selexipag post-treatment period for 7 to 11 day. This period started in the evening of Day 3 at Visit 2 with the administration of oral selexipag and ended 7-11 days later, at Visit 3.
The endpoints analyzed for Period 1, Period 2, and Period 3 and follow-up period combined included discontinuations due to prostacyclin-associated AEs, adverse events (AEs) and serious adverse events (SAEs), prostacyclin-associated AEs, AEs related to injection site reactions, and PAH-related AEs.
The endpoints analyzed for (i) Period 1, Period 2, and Period 3 and follow-up period combined (ii) Period 1 and Period 2 combined, and (iii) Period 2 and Period 3 combined included discontinuations due to prostacyclin-associated AEs, discontinuations due to any AEs, AEs and SAEs, prostacyclin-associated AEs, PAH-related AEs, change from baseline in vital signs (systolic blood pressure [SBP], diastolic blood pressure [DBP], and pulse rate) and body weight, ECG abnormalities, marked laboratory abnormalities, and change from baseline in WHO FC.
The statistical analysis was mainly descriptive, without formal hypothesis testing. Exact Pearson-Clopper CIs for the incidence of AEs were computed.

[1] = Overall (Periods 1, 2, and 3, and safety-follow-up combined), 20 subjects
[2] = Overall (Periods 1, 2, and 3 with safety-follow-up combined)
[3] = Period 1 (oral selexipag), total, N = 20
[4] = Period 1 (oral selexipag, 24 h), high dose cohort (1200-1600 μg), N = 12
[5] = Period 1 (oral selexipag, 24 h), high dose cohort (1200-1600 μg), N = 12, listed as Uptravi
[6] = Period 1 (oral selexipag, 24 h), low dose cohort (200-1000 μg), N = 8
[7] = Period 1 (oral selexipag, 24 h), total, N = 20
[8] = Period 2 (i.v. selexipag, 36 h), high dose cohort (1200-1600 μg), N = 12
[9] = Period 2 (i.v. selexipag, 36 h), low dose cohort (200-1000 μg), N = 8
[10] = Period 2 (i.v. selexipag, 36 h), total, N = 20
[11] = Period 2 (intravenous selexipag treatment), high dose cohort (1200-1600 μg), N = 12

CC(C)N(CCCCOCC(=O)NS(C)(=O)=O)c1cnc(-c2ccccc2)c(-c2ccccc2)n1 [selexipag, 2-{4-[(5,6-diphenylpyrazin-2-yl)(propan-2-yl)amino]butoxy}-N-(methanesulfonyl)acetamide]
1 (12.5) n (%): AE incidence: Swelling face [6] | Subjects with at least one AE [6] | AE incidence: Dysgeusia [9] | AE incidence: Epistaxis [9] | AE incidence: Headache [9] | AE incidence: Incorrect drug administration rate [9] | AE incidence: Lymphadenopathy [9] | AE incidence: Tachycardia [9]
two: subjects with clinically significant injection site reactions as determined by the investigator (Period 2 (i.v. selexipag))
4 subjects: most frequently reported AE preferred term: headache [1]
15 subjects: subjects with at least 1 AE during the study [1]
5 subjects: subjects with moderate intensity AEs [2]
1 subject: subjects with severe intensity AEs [2]
3 n (%): AE incidence: Headache [8] | Prostacyclin-associated AE incidence: Headache [11]
6 n (%): Subjects with at least one AE [8]
No subject: prematurely discontinued study treatment (Period 2 (3 i.v. infusions of selexipag))
0 n (%): Subjects with at least one prostacyclin-associated AE (Period 1 (oral selexipag), high dose cohort (1200-1600 μg), N = 12) | Subjects with at least one prostacyclin-associated AE (Period 1 (oral selexipag), low dose cohort (200-1000 μg), N = 8) | Deaths [3] | Discontinuations due to prostacyclin-associated AEs [3] | Number of subjects with at least one Prostacyclin-associated AEs [3] | Number of subjects with at least one Serious adverse events (SAEs) [3] | SAE incidence: Blindness unilateral [3] | SAE incidence: Rhegmatogenous retinal detachment [3] | SAE incidence: Right ventricular failure [3] | AE incidence: Swelling face [4] | AE incidence: Sleep disorder [6] | AE incidence: Dysgeusia [8] | AE incidence: Epistaxis [8] | AE incidence: Incorrect drug administration rate [8] | AE incidence: Lymphadenopathy [8] | AE incidence: Tachycardia [8] | AE incidence: Diarrhoea [9] | AE incidence: Flatulence [9] | AE incidence: Flushing [9] | AE incidence: Infusion site erythema [9] | AE incidence: Infusion site swelling [9] | AE incidence: Myalgia [9] | AE incidence: Nasal congestion [9] | AE incidence: Nausea [9] | AE incidence: Pain in jaw [9] | AE incidence: Tension headache [9] | AE incidence: Vascular access complication [9] | AE incidence: Vomiting [9]
10 n (%): Subjects with at least one AE [10]
2 n (%): Subjects with at least one AE (Period 1 (oral selexipag, 24 h), total, N = 20, listed as Uptravi) | AE incidence: Infusion site erythema [8] | AE incidence: Infusion site erythema [10]
1 n (%): AE incidence: Sleep disorder [4] | Subjects with at least one AE [4] | AE incidence: Sleep disorder [7] | AE incidence: Swelling face [7] | AE incidence: Diarrhoea [8] | AE incidence: Flatulence [8] | AE incidence: Flushing [8] | AE incidence: Infusion site swelling [8] | AE incidence: Myalgia [8] | AE incidence: Nasal congestion [8] | AE incidence: Nausea [8] | AE incidence: Pain in jaw [8] | AE incidence: Tension headache [8] | AE incidence: Vascular access complication [8] | AE incidence: Vomiting [8] | AE incidence: Diarrhoea [10] | AE incidence: Dysgeusia [10] | AE incidence: Epistaxis [10] | AE incidence: Flatulence [10] | AE incidence: Flushing [10] | AE incidence: Incorrect drug administration rate [10] | AE incidence: Infusion site swelling [10] | AE incidence: Lymphadenopathy [10] | AE incidence: Myalgia [10] | AE incidence: Nasal congestion [10] | AE incidence: Nausea [10] | AE incidence: Pain in jaw [10] | AE incidence: Tachycardia [10] | AE incidence: Tension headache [10] | AE incidence: Vascular access complication [10] | AE incidence: Vomiting [10] | Prostacyclin-associated AE incidence: Diarrhoea [11] | Prostacyclin-associated AE incidence: Flushing [11] | Prostacyclin-associated AE incidence: Myalgia [11] | Prostacyclin-associated AE incidence: Nausea [11] | Prostacyclin-associated AE incidence: Pain in jaw [11] | Prostacyclin-associated AE incidence: Tension headache [11]
2 n (%) and 2 (10.0) n (%): Subjects with at least one AE [7]
1 (8.3) n (%): AE incidence: Sleep disorder [5] | Subjects with at least one AE [5]
4 n (%): AE incidence: Headache [10]
4 (50.0) n (%): Subjects with at least one AE [9]
8 subjects: subjects with mild intensity AEs [2]
